Results reported in US8497278B2, “Imidazo[1,2-a]pyridine compounds” (priority 2008, dated 2013).

Each compound was assayed on central benzodiazepine receptors (assay: Central benzodiazepine receptor binding (test of Speth et al.)). Settings: 1000 nM of the compound.
Method: Compounds of the invention were assessed for their binding to the benzodiazepine receptor by the test of Speth et al. [Life Sci. 24, 351 (1979)] for central benzodiazepine receptors and LeFur et al. [Life Sci. 33, 449 (1983)] for peripheral receptors. The compounds were tested first at 1.0E-09, 1.0E-07 and 1.0E-05 M in single determination. […] The specific ligand binding to the receptor is defined as the difference between the total binding and the nonspecific binding determined in the presence of an excess of unlabelled ligand. In each experiment, the respective reference compound was tested concurrently with the test compounds in order to assess the assay suitability. It was tested at several concentrations (for IC50 value determination), and the data were compared with historical values. The assay was rendered valid if suitability criteria were met.
BZD central binding data for the compounds is provided in Table 3, wherein is provided the percent inhibition of central BZD in the presence of 1000 nM of the compound.

Question: For `CN1CCN(c2cc(Cc3c(-c4ccc(Cl)cc4)nc4ccccn34)ncn2)CC1` [Compound 244, 2-(4-chlorophenyl)-3-((6-(4-methylpiperazin-1-yl)pyrimidin-4-yl)methyl)imidazo[1,2-a]pyridine], which “% Inhibition at 1000 nM for CBZD” value is on record?
Answer: ++ (percentage of inhibition of central BZD site binding is greater than 80% in the presence of 1000 nM of the compound)

Question: `Cc1ccc(-c2nc3ccc(C)cn3c2CNc2ncncn2)cc1` [Compound 146, (6-Methyl-2-p-tolyl-imidazo[1,2-a]pyridin-3-ylmethyl)-[1,3,5]triazin-2-yl-amine] was tested. Which “% Inhibition at 1000 nM for CBZD” value did it give?
Answer: ++ (percentage of inhibition of central BZD site binding is greater than 80% in the presence of 1000 nM of the compound)

Question: `O=C1CCCN1Cc1c(-c2ccc(Cl)cc2)nc2ccc(Cl)cn12` [Compound 112, 1-((6-chloro-2-(4-chlorophenyl)H-imidazo[1,2-a]pyridin-3-yl)methyl)pyrrolidin-2-one] was tested. Which “% Inhibition at 1000 nM for CBZD” value did it give?
Answer: ++ (percentage of inhibition of central BZD site binding is greater than 80% in the presence of 1000 nM of the compound)

Question: With `Cc1ccc(-c2nc3ccc(C)cn3c2Cn2ccnc2C(=O)N(C)C)cc1` [Compound 71, N,N-Dimethyl-1-((6-methyl-2-p-tolylH-imidazo[1,2-a]pyridin-3-yl)methyl)-1H-imidazole-2-carboxamide] as the compound, how does the “% Inhibition at 1000 nM for CBZD” value read?
Answer: + (percentage of inhibition of central BZD site binding is greater than 50% but less than 80% in the presence of 1000 nM of the compound)

Question: `Fc1ccc2nc(-c3ccc(Cl)cc3)c(Cn3cncn3)n2c1` [Compound 55, 3-((1H-1,2,4-triazol-1-yl)methyl)-2-(4-chlorophenyl)-6-fluoroH-imidazo[1,2-a]pyridine] was tested. Which “% Inhibition at 1000 nM for CBZD” value did it give?
Answer: ++ (percentage of inhibition of central BZD site binding is greater than 80% in the presence of 1000 nM of the compound)

Question: For `CCOC(=O)c1cc(-c2ccco2)n(Cc2c(-c3ccc(Cl)cc3)nc3ccccn23)n1` [Compound 30, Ethyl 1-((2-(4-chlorophenyl)imidazo[1,2-a]pyridin-3-yl)methyl)-5-(furan-2-yl)-1H-pyrazole-3-carboxylate], which “% Inhibition at 1000 nM for CBZD” value is on record?
Answer: + (percentage of inhibition of central BZD site binding is greater than 50% but less than 80% in the presence of 1000 nM of the compound)

Question: With `CCOC(=O)c1nccn1Cc1c(-c2ccc(C)cc2)nc2ccc(C)cn12` [Compound 12, 1-(6-Methyl-2-p-tolyl-imidazo[1,2-a]pyridin-3-ylmethyl)-1H-imidazole-2-carboxylic acid ethyl ester] as the compound, how does the “% Inhibition at 1000 nM for CBZD” value read?
Answer: ++ (percentage of inhibition of central BZD site binding is greater than 80% in the presence of 1000 nM of the compound)

Question: `O=C1CCN1Cc1c(-c2ccc(Cl)cc2)nc2ccc(Cl)cn12` [Compound 113, 1-[6-Chloro-2-(4-chloro-phenyl)-imidazo[1,2-a]pyridin-3-ylmethyl]-azetidin-2-one] was tested. Which “% Inhibition at 1000 nM for CBZD” value did it give?
Answer: ++ (percentage of inhibition of central BZD site binding is greater than 80% in the presence of 1000 nM of the compound)

Question: With `Cc1ccc(-c2nc3ccc(C)cn3c2CNc2nc3ccccc3n2C)cc1` [Compound 154, 1-methyl-N-((6-methyl-2-p-tolylH-imidazo[1,2-a]pyridin-3-yl)methyl)-1H-benzo[d]imidazol-2-amine] as the compound, how does the “% Inhibition at 1000 nM for CBZD” value read?
Answer: ++ (percentage of inhibition of central BZD site binding is greater than 80% in the presence of 1000 nM of the compound)

Question: For `O=c1ccccn1Cc1c(-c2ccc(Cl)cc2)nc2ccc(Cl)cn12` [Compound 104, 1-((6-chloro-2-(4-chlorophenyl)H-imidazo[1,2-a]pyridin-3-yl)methyl)pyridin-2(1H)-one], which “% Inhibition at 1000 nM for CBZD” value is on record?
Answer: ++ (percentage of inhibition of central BZD site binding is greater than 80% in the presence of 1000 nM of the compound)

Question: Which “% Inhibition at 1000 nM for CBZD” value does the source give for `CCOC(=O)c1cc(-c2ccco2)nn1Cc1c(-c2ccc(Cl)cc2)nc2ccccn12` [Compound 31, Ethyl 1-((2-(4-chlorophenyl)imidazo[1,2-a]pyridin-3-yl)methyl)-3-(furan-2-yl)-1H-pyrazole-5-carboxylate] here?
Answer: + (percentage of inhibition of central BZD site binding is greater than 50% but less than 80% in the presence of 1000 nM of the compound)

Question: How did the “% Inhibition at 1000 nM for CBZD” value turn out when `Fc1ccc(-c2nc3ccc(F)cn3c2Cc2ncn[nH]2)cc1` [Compound 210, 3-((1H-1,2,4-triazol-5-yl)methyl)-6-fluoro-2-(4-fluorophenyl)imidazo[1,2-a]pyridine] was run?
Answer: ++ (percentage of inhibition of central BZD site binding is greater than 80% in the presence of 1000 nM of the compound)

Question: Which “% Inhibition at 1000 nM for CBZD” value does the source give for `Cc1ccc(-c2nc3c(Cl)cc(Cl)cn3c2Cn2nc(C)ccc2=O)cc1` [Compound 117, 2-(6,8-Dichloro-2-p-tolyl-imidazo[1,2-a]pyridin-3-ylmethyl)-6-methyl-2H-pyridazin-3-one] here?
Answer: ++ (percentage of inhibition of central BZD site binding is greater than 80% in the presence of 1000 nM of the compound)

Question: With `Cc1ccc(-c2nc3ccc(C)cn3c2CNc2cnccn2)cc1` [Compound 144, N-((6-methyl-2-p-tolylH-imidazo[1,2-a]pyridin-3-yl)methyl)pyrazin-2-amine] as the compound, how does the “% Inhibition at 1000 nM for CBZD” value read?
Answer: ++ (percentage of inhibition of central BZD site binding is greater than 80% in the presence of 1000 nM of the compound)

Question: `COC(=O)c1cn(Cc2c(-c3ccc(Cl)cc3)nc3ccccn23)c2ccccc12` [Compound 38, Methyl 1-((2-(4-chlorophenyl)imidazo[1,2-a]pyridin-3-yl)methyl)-1H-indole-3-carboxylate] was tested. Which “% Inhibition at 1000 nM for CBZD” value did it give?
Answer: ++ (percentage of inhibition of central BZD site binding is greater than 80% in the presence of 1000 nM of the compound)

Question: How did the “% Inhibition at 1000 nM for CBZD” value turn out when `Fc1cc(F)nc(NCc2c(-c3ccccc3)nc3ccccn23)n1` [Compound 164, 4,6-difluoro-N-((2-phenylimidazo[1,2-a]pyridin-3-yl)methyl)pyrimidin-2-amine] was run?
Answer: ++ (percentage of inhibition of central BZD site binding is greater than 80% in the presence of 1000 nM of the compound)

Question: With `Cc1ccc2nc(-c3ccc(Cl)cc3)c(Cc3nnc(C)o3)n2c1` [Compound 203, 2-((2-(4-chlorophenyl)-6-methylimidazo[1,2-a]pyridin-3-yl)methyl)-5-methyl-1,3,4-oxadiazole] as the compound, how does the “% Inhibition at 1000 nM for CBZD” value read?
Answer: ++ (percentage of inhibition of central BZD site binding is greater than 80% in the presence of 1000 nM of the compound)

Question: Which “% Inhibition at 1000 nM for CBZD” value does the source give for `CCOC(=O)c1cn(Cc2c(-c3ccc(Cl)cc3)nc3ccccn23)c(=O)[nH]c1=O` [Compound 126, Ethyl 1-((2-(4-chlorophenyl)imidazo[1,2-a]pyridin-3-yl)methyl)-2,4-dioxo-1,2,3,4-tetrahydropyrimidine-5-carboxylate] here?
Answer: − (percentage of inhibition of central BZD site binding is less than 50% in the presence of 1000 nM of the compound)

Question: For `Cc1ccc2nc(-c3ccc(F)cc3)c(CNc3nc(F)cc(F)n3)n2c1` [Compound 166, 4,6-difluoro-N-((2-(4-fluorophenyl)-6-methylimidazo[1,2-a]pyridin-3-yl)methyl)pyrimidin-2-amine], which “% Inhibition at 1000 nM for CBZD” value is on record?
Answer: ++ (percentage of inhibition of central BZD site binding is greater than 80% in the presence of 1000 nM of the compound)

Question: How did the “% Inhibition at 1000 nM for CBZD” value turn out when `COC(=O)c1ncnn1Cc1c(-c2ccc(C)cc2)nc2ccc(C)cn12` [Compound 10, 2-(6-Methyl-2-p-tolyl-imidazo[1,2-a]pyridin-3-ylmethyl)-2H-[1,2,4]triazole-3-carboxylic acid methyl ester] was run?
Answer: ++ (percentage of inhibition of central BZD site binding is greater than 80% in the presence of 1000 nM of the compound)

Question: For `Cc1ccc(-c2nc3c(Cl)cc(Cl)cn3c2CNc2ncc[nH]2)cc1` [Compound 171, (6,8-Dichloro-2-p-tolyl-imidazo[1,2-a]pyridin-3-ylmethyl)-(1H-imidazol-2-yl)-amine], which “% Inhibition at 1000 nM for CBZD” value is on record?
Answer: ++ (percentage of inhibition of central BZD site binding is greater than 80% in the presence of 1000 nM of the compound)

Question: Which “% Inhibition at 1000 nM for CBZD” value does the source give for `Cc1ccc(-c2nc3ccc(C)cn3c2CNn2c(C)nc3ccccc3c2=O)cc1` [Compound 155, 2-Methyl-3-[(6-methyl-2-p-tolyl-imidazo[1,2-a]pyridin-3-ylmethyl)-amino]-3H-quinazolin-4-one] here?
Answer: + (percentage of inhibition of central BZD site binding is greater than 50% but less than 80% in the presence of 1000 nM of the compound)

Question: Which “% Inhibition at 1000 nM for CBZD” value does the source give for `Cc1ccc(-c2nc3ccc(C)cn3c2Cn2ccnc2)cc1` [Compound 1, 3-((1H-imidazol-1-yl)methyl)-6-methyl-2-p-tolylimidazo[1,2-a]pyridine] here?
Answer: ++ (percentage of inhibition of central BZD site binding is greater than 80% in the presence of 1000 nM of the compound)

Question: Which “% Inhibition at 1000 nM for CBZD” value does the source give for `Cc1ccc(-c2nc3ccc(C)cn3c2Cn2ncnc2C(N)=O)cc1` [Compound 69, 2-(6-Methyl-2-p-tolyl-imidazo[1,2-a]pyridin-3-ylmethyl)-2H-[1,2,4]triazole-3-carboxylic acid amide] here?
Answer: ++ (percentage of inhibition of central BZD site binding is greater than 80% in the presence of 1000 nM of the compound)

Question: With `CNc1nnc(Cc2c(-c3ccc(Cl)cc3)nc3ccccn23)s1` [Compound 235, 5-((2-(4-chlorophenyl)imidazo[1,2-a]pyridin-3-yl)methyl)-N-methyl-1,3,4-thiadiazol-2-amine] as the compound, how does the “% Inhibition at 1000 nM for CBZD” value read?
Answer: + (percentage of inhibition of central BZD site binding is greater than 50% but less than 80% in the presence of 1000 nM of the compound)
